Source: PMC5400620, “Preclinical therapeutic efficacy of a novel blood-brain barrier-penetrant dual PI3K/mTOR inhibitor with preferential response in PI3K/PTEN mutant glioma” (Oncotarget, 2017)

Target: T1, never-in-mitosis gene a (NIMA)-related kinase 2 (NEK2) (Homo sapiens, UniProt P51955)
T1 sequence (P51955 1-445): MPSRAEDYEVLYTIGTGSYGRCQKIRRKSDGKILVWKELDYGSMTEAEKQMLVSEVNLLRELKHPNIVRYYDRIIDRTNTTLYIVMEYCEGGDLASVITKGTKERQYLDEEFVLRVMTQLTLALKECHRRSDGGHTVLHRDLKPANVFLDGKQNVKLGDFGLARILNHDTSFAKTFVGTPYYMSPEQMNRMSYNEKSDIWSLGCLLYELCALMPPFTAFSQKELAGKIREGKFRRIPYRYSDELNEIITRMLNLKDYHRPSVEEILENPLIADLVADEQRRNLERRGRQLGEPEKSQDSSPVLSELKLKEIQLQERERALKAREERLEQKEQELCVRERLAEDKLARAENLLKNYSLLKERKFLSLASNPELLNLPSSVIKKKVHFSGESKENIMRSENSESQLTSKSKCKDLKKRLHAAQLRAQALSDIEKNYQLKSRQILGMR
Test: kinase panel, direct measurement of substrate phosphorylation, NEK2
Format: biochemical
Conditions: panel of 227 kinases; test concentration not given
Procedure: DS7423 inhibits PI3K/mTOR activity likely binding to the ATP binding cleft of these enzymes and was tested against class I PI3K and other kinases using an HTRF assay format and direct measurement of substrate phosphorylation, respectively.

Q: How did the “inhibition of NEK2” value turn out when `CC(=O)N1CCN(c2nc3c(N4CCOCC4)nc(-c4cnc(N)nc4)nc3n2CC(F)(F)F)C[C@H]1C` [DS, 1-{(2R)-4-[2-(2-Aminopyrimidin-5-yl)-6-(morpholin-4-yl)-9-(2,2,2-trifluoroethyl)-9H-purin-8-yl]-2-methylpiperazin-1-yl}ethan-1-one] was run?
A: greater than 50%
